Experiments:
[1] = test system: recombinant human HDAC1-4 and HDAC6-9; experiment: Histone deacetylase inhibition, two-step fluorogenic assay; format: biochemical; details: reduced form of the compound
Description: TCEP, tris(2-carboxyethyl)phosphine hydrocloride used as a reducing agent.
The experiments included HDACs falling in human class I (HDACs 1, 2, 3 and 8), as well as human class II (HDACs 4, 6, 7 and 9), and the activities were determined in a two-step fluorogenic assay by the method described in (Wegener et al. Analytical biochemistry (2003) 321:202-208). All HDAC dose-response curves were bundled for each compound individually in the native/oxidized and the reduced forms. The activity of each enzyme was normalized separately. For determination of the inhibitory effect, IC50 values (in μM concentrations) were obtained through a non-linear four-parameter fit.

[2] = test system: CNS cancer cell line (U251); experiment: NCI-60 assay, U251 cell line; format: cell-based, human
NCI-60 cancer cell lines [3] = details: for number of cancer cell lines completely killed / number of cancer cell lines whose growth was totally inhibited / TGI50, median concentration for total growth inhibition / GI50 / CC50: five-dose assay; for number of cancer cell lines completely killed: at median LC50 or lower; for number of cancer cell lines whose growth was totally inhibited: at median TGI50 or lower; for TGI50, median concentration for total growth inhibition: 29 (A) / 28 (B) cell lines; for GI50: read-out: GI50, median concentration, all but three cancer cell lines (HCT-15, NCI/ADR-RES, CAKI-1); for CC50: read-out: LC50, median concentration, 17 (A) / 20 (B) cell lines completely killed
[4] = test system: breast cancer cell line (BT-549); experiment: NCI-60 assay, BT-549 cell line; format: cell-based, human
NCI-60 cancer cell lines [5] = experiment: NCI-60 single-dose assay; format: cell-based, human; details: single dose 10 μM

Structure (SMILES)	HDAC inhibition ranking (order of inhibition) [1]	sensitivity of U251 CNS cancer cell line [2]	cancer cell lines inhibited in five-dose assay (NCI-60 cancer cell lines [3]; exceptions: HCT-15 colon, NCI/ADR-RES ovarian, CAKI-1 renal)	number of cancer cell lines completely killed (NCI-60 cancer cell lines [3])	number of cancer cell lines whose growth was totally inhibited (NCI-60 cancer cell lines [3])	TGI50, median concentration for total growth inhibition (NCI-60 cancer cell lines [3])	GI50 (NCI-60 cancer cell lines [3])	CC50 (NCI-60 cancer cell lines [3])	relative potency (all parameters) (NCI-60 cancer cell lines [3]; thailandepsin A vs thailandepsin B)	sensitivity of BT-549 breast cancer cell line [4]	inhibitory activity across the 60 cancer cell lines (NCI-60 cancer cell lines [5])	number of cell lines inhibited at the mean growth percent or more (NCI-60 cancer cell lines [5])
CC=C1NC(=O)C(CS)NC(=O)C(C(C)C)NC(=O)CC(C=CCCS)OC(=O)C(C(C)C)NC1=O (stereo not drawn) [reduced form of FK228]	HDAC2≧HDAC3≧HDAC1>HDAC8>HDAC4≧HDAC6>HDAC9≧HDAC7	–	–	–	–	–	–	–	–	–	–	–
CC[C@H](C)[C@H]1NC(=O)[C@H]2CSSCC/C=C/[C@H](CC(=O)N[C@H](CCSC)C(=O)N2)OC(=O)C[C@@H]1O [thailandepsin A]	–	very sensitive	inhibitory to all but three cancer cell lines	17 cancer cell lines	29 cancer cell lines	≤ 125.9 nM	≤ 0.0056 µM	≤ 3.89 µM	twice as potent as thailandepsin B	very sensitive	consistently inhibitory to most but not all 60 cancer cell lines	28 cell lines
CCCC[C@H]1NC(=O)C[C@H]2/C=C/CCSSC[C@@H](NC1=O)C(=O)N[C@H]([C@@H](C)CC)[C@@H](O)CC(=O)O2 [thailandepsin B]	–	very sensitive	–	20 cancer cell lines	28 cancer cell lines	≤ 256.4 nM	≤ 0.0117 µM	≤ 6.92 µM	–	very sensitive	consistently inhibitory to most but not all 60 cancer cell lines	30 cell lines

— US20110060021A1 (priority 2009, published 2011)
